The supplement of paper PMC4862054

Experiments:
Assay in all cases: normalised viability (% of control), CellTiter-Blue; higher = more viable cells (about 100 = DMSO control)
Settings in all cases: incubation time: 72 h
MDA-MB-436 = system: MDA-MB-436
Summary of the method: (§1)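 Each value is normalised viability at a single listed concentration of the series. Breast cancer cell lines in 384-well plates were incubated 72 h with compound and read by CellTiter-Blue fluorescence at 560/590 nm, with vehicle set to 100 and a positive kill control to 0 on every plate.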

BT-549 = system: BT-549
Summary of the method: as §1

SK-BR-3 = system: SK-BR-3
Summary of the method: as §1

MFM-223 = system: MFM-223
Summary of the method: as §1

MDA-MB-468 = system: MDA-MB-468
Summary of the method: as §1

BT-474 = system: BT-474
Summary of the method: as §1

HCC1143 = system: HCC1143
Summary of the method: as §1

DU-4475 = system: DU-4475
Summary of the method: as §1

CAL-148 = system: CAL-148
Summary of the method: as §1

HCC1937 = system: HCC1937
Summary of the method: as §1

CAL-120 = system: CAL-120
Summary of the method: as §1

HDQ-P1 = system: HDQ-P1
Summary of the method: as §1

HCC1599 = system: HCC1599
Summary of the method: as §1

CAL-85-1 = system: CAL-85-1
Summary of the method: as §1

Hs578T = system: Hs578T
Summary of the method: as §1

MDA-MB-453 = system: MDA-MB-453
Summary of the method: as §1

| SMILES | normalised viability (MDA-MB-436; 100 nM) [%] | normalised viability (BT-549; 100 nM) [%] | normalised viability (SK-BR-3; 100 nM) [%] | normalised viability (MFM-223; 100 nM) [%] | normalised viability (MDA-MB-468; 100 nM) [%] | normalised viability (BT-474; 100 nM) [%] | normalised viability (HCC1143; 100 nM) [%] | normalised viability (DU-4475; 10 nM) [%] | normalised viability (CAL-148; 10 nM) [%] | normalised viability (HCC1937; 100 nM) [%] | normalised viability (CAL-120; 100 nM) [%] | normalised viability (HDQ-P1; 10 nM) [%] | normalised viability (HCC1599; 100 nM) [%] | normalised viability (CAL-85-1; 10 nM) [%] | normalised viability (Hs578T; 100 nM) [%] | normalised viability (MDA-MB-453; 10 nM) [%] | normalised viability (MDA-MB-436; 10 nM) [%] | normalised viability (BT-549; 10 nM) [%] | normalised viability (SK-BR-3; 10 nM) [%] | normalised viability (MFM-223; 10 nM) [%] | normalised viability (MDA-MB-468; 10 nM) [%] | normalised viability (BT-474; 10 nM) [%] | normalised viability (HCC1143; 10 nM) [%] | normalised viability (DU-4475; 1 nM) [%] | normalised viability (CAL-148; 1 nM) [%] | normalised viability (HCC1937; 10 nM) [%] | normalised viability (CAL-120; 10 nM) [%] | normalised viability (HDQ-P1; 1 nM) [%] | normalised viability (HCC1599; 10 nM) [%] | normalised viability (CAL-85-1; 1 nM) [%] | normalised viability (Hs578T; 10 nM) [%] | normalised viability (MDA-MB-453; 1 nM) [%] |
| --- | --- | --- | --- | --- | --- | --- | --- | --- | --- | --- | --- | --- | --- | --- | --- | --- | --- | --- | --- | --- | --- | --- | --- | --- | --- | --- | --- | --- | --- | --- | --- | --- |
| Cc1c(C(=O)Nc2ccc(N3C[C@@H](C)O[C@@H](C)C3)nc2)cccc1-c1ccc(OC(F)(F)F)cc1 [NVP-LDE225] | 73.2 | 97 | 71.1 | 108 | 113 | 93.3 | 92.5 | 103 | 108 | 97.2 | 99.7 | 83.5 | 102 | 102 | 72.5 | 110 |  |  |  |  |  |  |  |  |  |  |  |  |  |  |  |  |
| O=C(c1cc(Cc2n[nH]c(=O)c3ccccc23)ccc1F)N1CCN(C(=O)C2CC2)CC1 [Olaparib] | 107 | 102 | 81.2 | 103 | 99.8 | 105 | 88.2 | 97.5 | 83.3 | 77.9 | 76.2 | 99.4 | 114 | 88.1 | 80.9 | 97.8 |  |  |  |  |  |  |  |  |  |  |  |  |  |  |  |  |
| C[C@]12C=CC(=O)C=C1CC[C@@H]1[C@@H]2C(=O)C[C@@]2(C)[C@H]1CC[C@]2(O)C(=O)CO [Prednisone] | 108 | 99.2 | 77 | 92.3 | 99.2 | 117 | 101 | 97.9 | 98.2 | 100 | 78.2 | 104 | 98.5 | 109 | 77.9 | 112 |  |  |  |  |  |  |  |  |  |  |  |  |  |  |  |  |
| CO[C@H]1C[C@@H]2CC[C@@H](C)[C@@](O)(O2)C(=O)C(=O)N2CCCC[C@H]2C(=O)O[C@H]([C@H](C)C[C@@H]2CC[C@@H](O)[C@H](OC)C2)CC(=O)[C@H](C)/C=C(\C)[C@@H](O)[C@@H](OC)C(=O)[C@H](C)C[C@H](C)/C=C/C=C/C=C/1C [Sirolimus] |  |  |  |  |  |  |  |  |  |  |  |  |  |  |  |  | 82.5 | 53 | 59.1 | 49 | 65.4 | 65.9 | 67.9 | 85.1 | 74.8 | 61.5 | 54.5 | 76.7 | 73.8 | 68.9 | 58.2 | 54.3 |
| CN1CCN(c2nc(C3=C(c4c[nH]c5ccccc45)C(=O)NC3=O)c3ccccc3n2)CC1 [Sotrastaurin] | 96.3 | 86.4 | 73 | 97.3 | 96.3 | 108 | 133 | 95 | 116 | 96.3 | 122 | 89.3 | 95 | 104 | 79.9 | 93.4 |  |  |  |  |  |  |  |  |  |  |  |  |  |  |  |  |
| CC/C(=C(\c1ccccc1)c1ccc(OCCN(C)C)cc1)c1ccccc1 [Tamoxifen] | 97.5 | 88.3 | 90.7 | 95.2 | 122 | 112 | 126 | 94.1 | 108 | 93.7 | 106 | 104 | 92.5 | 102 | 91.7 | 257 |  |  |  |  |  |  |  |  |  |  |  |  |  |  |  |  |
| COc1cc2c(N3CCN(C(=O)Nc4ccc(OC(C)C)cc4)CC3)ncnc2cc1OCCCN1CCCCC1 [Tandutinib] |  |  |  |  |  |  |  |  |  |  |  |  |  |  |  |  | 102 | 106 | 84.3 | 102 | 108 | 123 | 125 | 107 | 98.1 | 98.4 | 110 | 130 | 101 | 104 | 94.5 | 110 |
| C[C@@H](C(=O)O)c1ccc(-c2ccccc2)c(F)c1 [Tarenflurbil] | 122 | 103 | 84.8 | 101 | 104 | 109 | 98.8 | 114 | 90.2 | 109 | 98.6 | 91.8 | 103 | 91.5 | 72.9 | 99.5 |  |  |  |  |  |  |  |  |  |  |  |  |  |  |  |  |
| Cn1nnc2c(C(N)=O)ncn2c1=O [Temozolomide] | 94.5 | 83.6 | 96.2 | 105 | 95.7 | 98.2 | 85.4 | 124 | 90.4 | 100 | 95.9 | 92.3 | 115 | 102 | 81.3 | 101 |  |  |  |  |  |  |  |  |  |  |  |  |  |  |  |  |
| CC[C@@H]1C(=O)N(C)c2cnc(Nc3ccc(C(=O)N[C@H]4CC[C@H](N5CCN(CC6CC6)CC5)CC4)cc3OC)nc2N1C(C)C [Volasertib] |  |  |  |  |  |  |  |  |  |  |  |  |  |  |  |  | 88.6 | 94.5 | 53.6 | 51.1 | 83.8 | 55.8 | 77.4 | 124 | 98.3 | 70.6 | 48.5 | 103 | 78.5 | 95.3 | 97.3 | 104 |
